Assay results taken from article PMC12040169 (PLOS Biology, 2025).

Assay: in vitro
Settings: human, hela cells, % viability
Work on Cc1cnn(C2CCCN(C(=O)CC3C(=O)Nc4ccccc43)C2)c1 (stereo not drawn) [CBK304930] yielded a viability at 28.5 h, 10 µM of 81.7%.
For O=C(Cn1cnc2ccc(F)cc2c1=O)N1CCOC2CCCC21 (stereo not drawn) [CBK304932], the viability at 28.5 h, 10 µM was 90.4%.
In the case of CCNC(=O)C1(NC(=O)Cc2cn3cccc(C)c3n2)CCCCC1 [CBK304933], the viability at 28.5 h, 10 µM was 106%.
CC(=O)N1CCCc2cc(NC(=O)NCCc3cnn(C)c3)ccc21 [CBK304937] showed a viability at 28.5 h, 10 µM of 88.7%.
Compound Cn1cc(C(=O)NC2CCN(c3ccc(C#N)cc3F)CC2)cn1 [CBK304939] has a viability at 28.5 h, 10 µM of 83.7%.
Work on Cc1cnn(CC2CC2)c1NC(=O)Cc1csc(N2CCCC2=O)n1 [CBK304940] yielded a viability at 28.5 h, 10 µM of 92.4%.
Compound CNC(=O)CN(CCO)Cc1cc(Br)ccc1F [CBK304941] has a viability at 28.5 h, 10 µM of 108%.
CCOc1ccnc(N2CCN(C(=O)CCc3ccsc3)CC2)n1 [CBK304942] gave a viability at 28.5 h, 10 µM of 99.4%.
Work on COc1ccc(C)cc1-n1ccc(C(=O)NC2(C#N)CCSC2)n1 (stereo not drawn) [CBK304943] yielded a viability at 28.5 h, 10 µM of 93.1%.
With Cc1cccn2c(=O)cc(CN3CCCC(N4CCNC4=O)C3)nc12 (stereo not drawn) [CBK304947] the viability at 28.5 h, 10 µM was 88.4%.
CC1CCC(C(N)=O)CN1C(=O)c1csc(COc2ccc(Cl)cc2)n1 (stereo not drawn) [CBK304948] showed a viability at 28.5 h, 10 µM of 102%.
Work on COC(=O)c1cccn2cc(CN3CCOC4CCCCC43)nc12 (stereo not drawn) [CBK304949] yielded a viability at 28.5 h, 10 µM of 106%.
Cc1ccc(C(=O)Nc2ncn(CC(=O)N3CCCCCC3)n2)s1 [CBK304951] gave a viability at 28.5 h, 10 µM of 98.2%.
Work on COc1ccccc1CC(=O)Nc1ncccc1OCCCC#N [CBK304952] yielded a viability at 28.5 h, 10 µM of 91%.
With CCn1ncc2c(C(=O)NC(C)COC)cc(-c3cccs3)nc21 (stereo not drawn) [CBK304955] the viability at 28.5 h, 10 µM was 87.1%.
COC(=O)c1cccn2cc(CN3CCSC(C)C3)nc12 (stereo not drawn) [CBK304958] showed a viability at 28.5 h, 10 µM of 97.4%.
With Cc1nc2c(c(C)c1CC(=O)NCc1cccc(C#N)c1)c(=O)[nH]n2C [CBK304959] the viability at 28.5 h, 10 µM was 92.4%.
Compound COc1cccc(CC(=O)Nc2ncccc2OCCCC#N)c1 [CBK304961] has a viability at 28.5 h, 10 µM of 88%.
In the case of Cc1nc(CN2CCCC(NCc3ccc(C(N)=O)cc3)C2)no1 (stereo not drawn) [CBK304962], the viability at 28.5 h, 10 µM was 88.3%.
In the case of COC(=O)C1CCCN1CC(=O)NCc1ccc(OCC(N)=O)cc1 (stereo not drawn) [CBK304970], the viability at 28.5 h, 10 µM was 86.1%.
For CC1CC1C(=O)N(C)C1CCN(c2ncnc3ccccc23)CC1 (stereo not drawn) [CBK304972], the viability at 28.5 h, 10 µM was 83.3%.
In the case of CC1CCc2c(sc3nc(CN4CCCCC4C)[nH]c(=O)c23)C1 (stereo not drawn) [CBK304975], the viability at 28.5 h, 10 µM was 89.3%.
CCCn1c(O)cc(=O)nc1SCC(=O)N1CCCc2ccccc21 [CBK304977] showed a viability at 28.5 h, 10 µM of 79.1%.
For Cc1cc(C(=O)N2CCc3c(sc4ncnc(N)c34)C2)c(C)s1 [CBK304980], the viability at 28.5 h, 10 µM was 88.5%.
Compound COc1cccc(CC(=O)Nc2ncccc2C)c1 [CBK304982] has a viability at 28.5 h, 10 µM of 98.9%.
Work on Cc1ccc(NC(=O)CCc2c(C)nc(N3CCOCC3)[nH]c2=O)cc1 [CBK304985] yielded a viability at 28.5 h, 10 µM of 98.2%.
With Cc1nc(N2CCOCC2)[nH]c(=O)c1CCC(=O)Nc1ccc(F)cc1 [CBK304990] the viability at 28.5 h, 10 µM was 91.1%.
For CC1CCc2sc(C(=O)N3CCC4(CC3)NC(=O)NC4=O)cc2C1 (stereo not drawn) [CBK304992], the viability at 28.5 h, 10 µM was 89.1%.
For Cc1nc2nc(N)nn2c(C)c1CCC(=O)NCc1cccc(Cl)c1 [CBK304993], the viability at 28.5 h, 10 µM was 87.5%.
Compound CCCn1ccnc1SCC(=O)Nc1ccc(N(C)C)cc1 [CBK304996] has a viability at 28.5 h, 10 µM of 112%.
COC(=O)c1ccc2c(=O)n(CC(C)O)c(SC3CCOC3=O)nc2c1 (stereo not drawn) [CBK304997] gave a viability at 28.5 h, 10 µM of 84.7%.
Compound Cc1ccc(Cc2cnc(NC(=O)CN3CSCC3=O)s2)cc1Cl [CBK305001] has a viability at 28.5 h, 10 µM of 82%.
Work on CC1CCc2c(C(=O)N(C)CC(=O)NC(C)(C)C)csc2C1 (stereo not drawn) [CBK305002] yielded a viability at 28.5 h, 10 µM of 97.5%.
For CCOC(=O)c1cnc(SC(C)C(=O)N2CCc3ccccc32)nc1N (stereo not drawn) [CBK305007], the viability at 28.5 h, 10 µM was 86.9%.
In the case of COc1ccc(S(=O)(=O)N2CCOCC2)cc1C(=O)N1CCCC(C)C1 (stereo not drawn) [CBK305011], the viability at 28.5 h, 10 µM was 110%.
For CC1CCCN(C(=O)c2cc(S(=O)(=O)N3CCOCC3)ccc2Cl)C1 (stereo not drawn) [CBK305012], the viability at 28.5 h, 10 µM was 99.5%.
CC(C)CC(=O)N1CCN(Cc2nc3sc4c(c3c(=O)[nH]2)CCC4)CC1 [CBK305014] showed a viability at 28.5 h, 10 µM of 86.4%.
Compound CN(C)c1nc(-c2ccc3c(c2)CCCN3S(C)(=O)=O)cs1 [CBK305016] has a viability at 28.5 h, 10 µM of 87.1%.
COC(=O)c1ccc2c(=O)n(CC(C)O)c(SC)nc2c1 (stereo not drawn) [CBK305018] showed a viability at 28.5 h, 10 µM of 88%.
Cc1csc2nc(CN3CCN(C(=O)c4ccccc4)CC3)cc(=O)n12 [CBK305019] gave a viability at 28.5 h, 10 µM of 110%.
With CS(=O)(=O)N1CCCc2cc(-c3csc(N4CCOCC4)n3)ccc21 [CBK305022] the viability at 28.5 h, 10 µM was 84.8%.
For O=C(NCCCc1ccccc1)c1cccc(S(=O)(=O)N2CCCC2)c1 [CBK305024], the viability at 28.5 h, 10 µM was 96.1%.
CCCC(=O)Nc1ccc(-c2csc(N3CCN(C)CC3)n2)cc1 [CBK305025] showed a viability at 28.5 h, 10 µM of 103%.
Work on CCCn1c(SCC(=O)NC2CCN(CC)CC2)nc2cc(Cl)ccc21 [CBK305027] yielded a viability at 28.5 h, 10 µM of 104%.
COc1ccccc1C(CNC(=O)Nc1cc(C)on1)N(C)C (stereo not drawn) [CBK305028] showed a viability at 28.5 h, 10 µM of 97.8%.
Compound CC(Sc1nc2ccccc2c(=O)n1C)C(=O)N1CCOCC1 (stereo not drawn) [CBK305031] has a viability at 28.5 h, 10 µM of 88.5%.
In the case of CC1CCCCN1S(=O)(=O)c1ccc(-n2ncc(Cl)c(Cl)c2=O)cc1 (stereo not drawn) [CBK305035], the viability at 28.5 h, 10 µM was 90.6%.
COC(=O)CNC(=O)c1cc(-c2ccc(C)s2)nc2c1cnn2C(C)C [CBK305040] showed a viability at 28.5 h, 10 µM of 99.5%.
With O=C(Cn1ccc(=O)[nH]c1=O)NCc1ccc(OCC(F)(F)F)cc1 [CBK305041] the viability at 28.5 h, 10 µM was 109%.
For N#Cc1ccnc(N2CCN(CC(=O)NCC(F)(F)F)CC2)c1 [CBK305042], the viability at 28.5 h, 10 µM was 95.1%.
With CC(=O)Nc1cccc(-n2nnnc2SCC(=O)N2CCNC2=O)c1 [CBK305043] the viability at 28.5 h, 10 µM was 88.5%.
Compound Cc1ccsc1C(=O)N1CCN(Cc2cc(=O)n3ccccc3n2)CC1 [CBK305044] has a viability at 28.5 h, 10 µM of 102%.
N#Cc1cccc(C(=O)NCCc2cn3c(n2)CCCC3)c1 [CBK305046] gave a viability at 28.5 h, 10 µM of 93.9%.
Work on COc1cccc(CC(=O)Nc2ncccc2O)c1 [CBK305047] yielded a viability at 28.5 h, 10 µM of 95.3%.
Work on O=C(NCCN1CCc2ccccc2C1)C1CCCCC1 [CBK305049] yielded a viability at 28.5 h, 10 µM of 115%.
CCOC(=O)N1CCN(S(=O)(=O)c2ccc3c(c2)oc(=O)n3CC)CC1 [CBK305055] showed a viability at 28.5 h, 10 µM of 99%.
Cn1ncc2c(=O)n(Cc3noc(-c4ccsc4)n3)cnc21 [CBK305056] showed a viability at 28.5 h, 10 µM of 99%.
Cc1cc(NC(=O)NC2CC3(CCN(C)CC3)Oc3ccccc32)no1 (stereo not drawn) [CBK305059] gave a viability at 28.5 h, 10 µM of 104%.
In the case of CC(C)c1nc2c(n1C)CCN(Cc1cc(=O)n3ccccc3n1)C2 [CBK305061], the viability at 28.5 h, 10 µM was 92.6%.
With CCc1ccc2c(c1)C(CCNC(=O)CCc1ccsc1)C(=O)N2 (stereo not drawn) [CBK305063] the viability at 28.5 h, 10 µM was 94.5%.
With Cn1cc(C2CCCN2C(=O)Cc2csc3ccccc23)cn1 (stereo not drawn) [CBK305066] the viability at 28.5 h, 10 µM was 102%.
Compound Cc1cc(OCC(=O)N2CCC(C(=O)Nc3ccccc3)CC2)no1 [CBK305067] has a viability at 28.5 h, 10 µM of 99.5%.
In the case of Cc1ccnc2nc(C(=O)OCC(=O)Nc3cccc(C#N)c3)nn12 [CBK305068], the viability at 28.5 h, 10 µM was 100%.
CCN(CC)C(=O)CCc1nc2sc3c(c2c(=O)[nH]1)CCCC3 [CBK305069] gave a viability at 28.5 h, 10 µM of 87.6%.
In the case of CCn1cnnc1SCC(=O)Nc1ccc(CN2CCOCC2)cc1 [CBK305072], the viability at 28.5 h, 10 µM was 97.4%.
In the case of COc1cccc(C(=O)NCC(c2cccs2)N2CCOCC2)c1 (stereo not drawn) [CBK305075], the viability at 28.5 h, 10 µM was 90.7%.
